Legend:
normal mice [1] = conditions: subcutaneous injection 10 mg kg^−1; 5-30 min; FIG. 10B
normal mice [2] = conditions: subcutaneous injection 10 mg kg^−1; 1 hour after injection; FIG. 10G

CN1CC[C@]23c4c5ccc(O)c4O[C@H]2[C@@H](O)C=C[C@H]3[C@H]1C5 [morphine single drug, morphine]
heart rate compared with conditions before administration (normal mice [1]): remarkably reduced | number of fecal particles compared with the solvent group (normal mice [2]): remarkably reduced

Reference: US20260240772A1 (priority 2022, published 2026)
